From patent US11672868B2, “Bicyclic peptide ligands specific for MT1-MMP” (priority 2014, dated 2023)
Numbered stars: 1 amine (or outer) side, 2 acyl side, 3 side chain; on linkers, the order of the positions; unused ones are H or OH. Bridge positions count the residues as written; N and C are the ends. Square brackets hold non-standard residues; d marks the D form. Peptide text beside a SMILES is read from it. * marks the point of attachment. 5FAM = O=C1OC2(c3ccc(O)cc3Oc3cc(O)ccc32)c2ccc(C(=O)*)cc21; 1Nal = N[C@@H](Cc1cccc2ccccc12)C(=O)O; TBMB = c1c(C[*:1])cc(C[*:3])cc1C[*:2]; Tle = CC(C)(C)[C@H](N)C(=O)O; βAla = NCCC(=O)O; Sar = CNCC(=O)O

How the values were obtained:
Test in all cases: FP selectivity against related metalloproteinases
Format in all cases: binding
Details in all cases: Table 14
MMP-2 = target: T1, MMP-2 (Homo sapiens, UniProt P08253)
T1 sequence (P08253 110-660): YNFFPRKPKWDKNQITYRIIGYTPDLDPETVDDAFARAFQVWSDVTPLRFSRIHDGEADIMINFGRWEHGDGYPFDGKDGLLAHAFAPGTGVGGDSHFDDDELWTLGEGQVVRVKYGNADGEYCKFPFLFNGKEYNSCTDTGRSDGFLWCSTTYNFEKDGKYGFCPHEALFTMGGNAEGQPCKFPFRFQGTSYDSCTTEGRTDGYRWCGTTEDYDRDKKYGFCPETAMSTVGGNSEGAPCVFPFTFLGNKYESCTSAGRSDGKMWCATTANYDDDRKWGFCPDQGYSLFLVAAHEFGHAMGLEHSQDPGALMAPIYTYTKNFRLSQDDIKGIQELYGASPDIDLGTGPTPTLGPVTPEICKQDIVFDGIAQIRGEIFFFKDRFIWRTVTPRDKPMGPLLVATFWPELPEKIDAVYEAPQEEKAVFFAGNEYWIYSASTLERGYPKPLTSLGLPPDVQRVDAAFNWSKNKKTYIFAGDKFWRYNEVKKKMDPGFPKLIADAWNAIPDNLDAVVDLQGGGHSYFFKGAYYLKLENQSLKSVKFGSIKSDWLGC
Description: (§1) The N-terminally fluoresceinated derivative of 17-69-07-N241 (termed 17-69-07-N258, of the sequence: Fluorescein-(bAla)-Sar10-A-(17-69-07) D-Ala1 1Nal4 D-Ala5 tBuGly11) was tested against related human metalloproteinases.

MMP-15 = MMP-15 (Homo sapiens, UniProt P51511)
Sequence of MMP-15 (P51511 132-669): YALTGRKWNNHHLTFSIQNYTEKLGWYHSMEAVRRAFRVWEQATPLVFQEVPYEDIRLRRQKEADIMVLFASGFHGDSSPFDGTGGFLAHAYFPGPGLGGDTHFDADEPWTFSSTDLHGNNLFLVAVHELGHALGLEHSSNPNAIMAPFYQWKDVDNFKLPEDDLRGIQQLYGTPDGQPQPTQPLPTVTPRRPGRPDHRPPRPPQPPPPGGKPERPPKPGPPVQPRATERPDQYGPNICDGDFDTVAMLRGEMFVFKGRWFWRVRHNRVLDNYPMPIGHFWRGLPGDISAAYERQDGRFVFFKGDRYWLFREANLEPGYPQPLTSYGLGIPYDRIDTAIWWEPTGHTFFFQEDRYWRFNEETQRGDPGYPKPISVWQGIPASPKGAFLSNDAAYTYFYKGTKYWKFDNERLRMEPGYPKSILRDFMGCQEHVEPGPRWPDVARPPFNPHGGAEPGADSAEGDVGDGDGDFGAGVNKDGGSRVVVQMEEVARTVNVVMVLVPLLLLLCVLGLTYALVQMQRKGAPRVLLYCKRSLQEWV
Description: as §1

MMP-16 = MMP-16 (Homo sapiens, UniProt P51512)
Sequence of MMP-16 (P51512 120-607): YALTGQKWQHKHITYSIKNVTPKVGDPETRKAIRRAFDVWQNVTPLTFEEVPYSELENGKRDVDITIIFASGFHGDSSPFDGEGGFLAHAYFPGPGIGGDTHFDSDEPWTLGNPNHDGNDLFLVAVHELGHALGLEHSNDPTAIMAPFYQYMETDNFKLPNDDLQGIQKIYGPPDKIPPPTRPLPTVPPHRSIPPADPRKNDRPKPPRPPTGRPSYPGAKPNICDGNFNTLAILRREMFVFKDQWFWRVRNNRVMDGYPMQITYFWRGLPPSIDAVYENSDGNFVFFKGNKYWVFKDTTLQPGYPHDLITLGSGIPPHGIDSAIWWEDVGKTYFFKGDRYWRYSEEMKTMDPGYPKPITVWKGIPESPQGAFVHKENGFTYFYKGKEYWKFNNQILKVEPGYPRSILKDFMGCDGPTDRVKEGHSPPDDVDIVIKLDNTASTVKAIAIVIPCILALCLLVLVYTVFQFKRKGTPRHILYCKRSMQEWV
Description: as §1

MMP-1 = target: T2, MMP-1 (Homo sapiens, UniProt P03956)
T2 sequence (P03956 100-469): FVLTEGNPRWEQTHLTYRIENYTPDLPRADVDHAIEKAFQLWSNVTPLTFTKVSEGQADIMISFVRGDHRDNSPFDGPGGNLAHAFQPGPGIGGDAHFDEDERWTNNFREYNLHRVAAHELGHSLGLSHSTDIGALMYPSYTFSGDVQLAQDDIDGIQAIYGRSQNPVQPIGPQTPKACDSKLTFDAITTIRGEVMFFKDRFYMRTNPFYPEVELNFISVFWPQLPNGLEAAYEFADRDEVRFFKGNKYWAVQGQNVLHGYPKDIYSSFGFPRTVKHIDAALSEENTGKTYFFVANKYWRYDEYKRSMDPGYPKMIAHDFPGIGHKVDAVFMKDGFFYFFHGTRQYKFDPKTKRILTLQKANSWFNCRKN
Description: as §1

Measured: Kd

C[C@H](NC(=O)CN(C)C(=O)CN(C)C(=O)CN(C)C(=O)CN(C)C(=O)CN(C)C(=O)CN(C)C(=O)CN(C)C(=O)CN(C)C(=O)CN(C)C(=O)CN(C)C(=O)CCNC(=O)c1ccc2c(c1)C(=O)OC21c2ccc(O)cc2Oc2cc(O)ccc21)C(=O)N[C@H]1CSCc2cc3cc(c2)CSC[C@H](NC(=O)[C@@H](C)NC(=O)[C@H](Cc2cccc4ccccc24)NC(=O)[C@H](CCC(=O)O)NC(=O)[C@H](CC(N)=O)NC(=O)[C@@H](C)NC1=O)C(=O)N[C@@H](CCC(=O)O)C(=O)N[C@@H](CC(=O)O)C(=O)N[C@@H](Cc1ccccc1)C(=O)N[C@@H](Cc1ccc(O)cc1)C(=O)N[C@@H](CC(=O)O)C(=O)N[C@@H](C(C)(C)C)C(=O)N[C@H](C(N)=O)CSC3 [17-69-07-N258, Fluorescein-(bAla)-Sar10-A-(17-69-07) D-Ala1 1Nal4 D-Ala5 tBuGly11] ({5FAM-βAla}-[Sar][Sar][Sar][Sar][Sar][Sar][Sar][Sar][Sar][Sar]AC[dA]NE[1Nal][dA]CEDFYD[Tle]C-NH2; linker 12-18-25 via TBMB)
> 1000 nM: all assays above
